Measured values as given in patent publication US20150359763A1, “USE OF 3-BROMOPYRUVATE AS A CONTRACEPTIVE” (Board of Regents of the Nevada System of Higher Education, …, priority 2013, published 2015).
Values joined by “and” are separate entries in the source; they are usually repeats but may differ in a detail not shown here. Identical values can stand only once. “Also recorded” adds a separate entry of the source. Like-named read-outs stand apart in the source and are kept apart here.

Assays:
[1] = system: mouse cauda epididymal sperm; experiment: Mouse sperm motility in HTF with compound, measured by CASA; assay type: cell-based; settings: for development of sperm motility: incubated 30 min and 60 min; for inhibition of sperm motility in vitro: HTF with 1 mM analog, 5 to 60 min
Procedure: Sperm motility requires energy, the sources of which include both glycolysis and mitochondrial activity. The effects of four glycolytic inhibitors (3-bromopyruvate, 2-deoxyglucose, lonidamin and oxythiamine) on sperm motility were evaluated. First mouse cauda epididymal sperm were collected into PBS, HTF (sperm-activating solution), HTF supplemented with 1 mM 3-Bromopyruvate, HTF containing 1 mM 2-Deoxyglucose, HTF with 0.5 mM Lonidamin and HTF with 1 MM Oxythiamine. Epididymal sperm can gain partial motility in PBS, but will never develop hyperactivated motility, which is required for sperm to be competent to fertilize eggs. On the other hand, when epididymal sperm are incubated in human tubular fluid (HTF) medium, which contains all of the sperm motility-activating factors, sperm will quickly develop hyperactivated motility and the motility peaks within 30 minutes and can last at least for several hours at 37° C. In the present studies, mouse cauda epididymal sperm were incubated in PBS, HTF and HTF supplemented with the 4 compounds for 30 min and 60 min. Sperm motility was then measured by Computer-Assisted Sperm Analysis (CASA). […] These studies indicate that in the presence of 3BP (at 1 mM), sperm cannot develop motility.
To determine how quickly 3BP could immobilize sperm, mouse cauda epididymal sperm were collected into HTF and HTF supplemented with 1 mM 3BP, respectively. Sperm were then incubated at 37° C. for 5, 10, 20 30, 40 and 60 min, respectively. Sperm motility was completely lost within 10 minutes at 1 mM concentration and the inhibitory effect appeared to be permanent (see FIG. 3).
Given that 3BP could immobilize sperm, it was determined if analogs of 3BP could have the same effect. Four 3BP analogs, including methyl-pyruvate, ethyl-pyruvate, isoamyl-pyruvate and propyl-pyruvate, were tested to determine if they also had the inhibitory effect on sperm in vitro. In the first study, the effects of methyl-pyruvate and ethyl-pyruvate on sperm motility were evaluated (FIG. 4A). Mouse epididymal sperm were collected into HTF (control), HTF containing 1 mM Methyl-pyruvate and HTF with 1 mM ethyl-pyruvate, respectively. After incubation at 37° C. for 5, 10, 20, 30, 40 and 60 min, sperm motility was measured using CASA.

[2] = system: mouse cauda epididymal sperm; experiment: Permanence of sperm immobilization: exposure in PBS, wash, activation in HTF, CASA; assay type: cell-based; settings: for motility development after short exposure and washout / motility developed in HTF after exposure and washing: 37° C.; for motility development after short exposure and washout: 5 min, washed, HTF 30 and 60 minutes; for motility developed in HTF after exposure and washing: PBS with 1 mM 3-BrPA, 1-30 min, washed twice, HTF 30 min and 60 min
Procedure: Studies were then performed to determine if sperm-immobilizing effects of 3BP were permanent or transient. Mouse cauda epididymal sperm were collected into PBS (control), PBS containing 1 mM 3BP, PBS containing 1 mM deoxyglucose, PBS with 0.5 mM lonidamine and PBS with 1 mM oxythiamine, followed by incubation at 37° C. for 5 min. The compounds were then washed away with PBS and then the treated sperm were incubated in HTF medium for 30 minutes and 60 minutes, followed by measurement of sperm motility by CASA. […] Again, 3BP had the strongest effects. […] These studies indicate that the sperm motility-abolishing effect of 3BP was permanent. Further, once exposed, sperm will never be able to develop motility.
To determine if sperm exposed to 3BP could still be activated in HTF, mouse sperm from the cauda epididymis were collected into PBS (control) and PBS containing 1 mM 3-BrPA, respectively. Then sperm were incubated in 37° C. for 1, 5, 10, 20 and 30 min, respectively. To remove 3BP, the sperm were washed twice with PBS. The sperm were then transferred to the HTF medium and activated for 30 min (FIG. 5, A) and 60 min (FIG. 5, B), followed by measurement the sperm motility using CASA.

human semen = experiment: Sperm motility in liquidified human semen with 3BP; assay type: cell-based; settings: 1 mM 3BP added directly to liquidified semen, 37° C.
Procedure: To evaluate the effect of 3BP on sperm motility in human semen, human semen was liquidified under room temperature and 3BP was directly added into the liquidified semen at a concentration of 1 mM followed by incubation at 37° C. for 1, 5, 10, 20 and 30 minutes (FIGS. 7 and 8). These studies indicate that 3BP can completely abolish human sperm motility within 5 minutes of contact.

mouse epididymal sperm = experiment: EC50 and EC100 for immobilizing mouse sperm within 20 seconds of contact, CASA; assay type: cell-based
Procedure: (§1) To determine at what concentrations 3BP can block the motility of 50% and 100% of the total motile sperm, mouse epididymal sperm were collected into PBS (pH 7.5) and then transferred to pre-warmed (37° C.) HTF medium containing serial dilutions of 3BP (pH 7.5) at concentrations ranging from 10 to 130 mM with a 10 mM increment. Motility was measured using CASA upon 20 seconds of contact with 3BP. […] Therefore, the 3BP EC50 is ˜40˜50 mM and EC100 is ˜100 mM for mouse epididymal sperm at pH 7.5 (FIG. 9). Similarly, the EC50 and EC100 of 3BP in immobilizing human sperm were determined. Human “swim-up” sperm were added to HTF containing 3BP at increasing concentrations ranging from 100 mM to 210 mM at pH 7.5. Sperm motility was measured upon 20 seconds of contact using CASA. […] However, the vaginal environment tends to be acidic (˜pH 5.0) and the effectiveness of 3BP in immobilizing sperm was further evaluated when pH was set at ˜5.0 (FIGS. 10 and 12).

sperm ATP production = experiment: Sperm ATP content, Luciferase Bioluminescence Assay kit; assay type: cell-based; settings: 1 mM 3BP, during 60 min activation by HTF
Procedure: The ATP production in sperm was measured with or without exposure to 1 mM 3BP during 60 min activation by HTF. Sperm ATP contents were measured using a Luciferase Bioluminescence Assay kit (FIG. 13). […] However, such a drastic suppression cannot be explained solely by its anti-glycolytic property because glycolysis provides only partial energy sperm motility requires.

human "swim-up" sperm [3] = experiment: EC50 and EC100 for immobilizing human sperm within 20 seconds of contact, CASA; assay type: cell-based; settings: for EC50: read-out: EC50 (50% of motile sperm immobilized within 20 seconds of contact)
Procedure: as §1

[4] = system: sperm mitochondrial membrane potential; experiment: Sperm mitochondrial membrane potential, JC-1 assays; assay type: cell-based; settings: 3BP 1 mM
Procedure: (§2) Whether 3BP could block mitochondrial activity in sperm was further examined because mitochondria also contribute energy production in sperm (FIG. 14). […] In control sperm trajectory tracking assays, the cauda epididymal sperm were collected into the HTF medium and incubated for 1, 5, 10 and 20 min (FIG. 15). In 3BP-treated sperm trajectory tracking assays, the cauda epididymal sperm were collected HTF+1 mM 3-BrPA and incubated for 1, 5, 10 and 20 min (FIG. 15). In control human sperm trajectory tracking assays, the human “swim-up” sperm were incubated HTF for 1, 5, 10, and 20 minutes (FIG. 16). In 3BP-treated human sperm movie clips, the human “swim-up” sperm were incubated in HTF+1 mM 3-BrPA for 1, 5, 10 and 20 minutes (FIG. 16). Further, the histology of the vagina and uterus in female mice that received daily intravaginal application of 3BP (200-400 ul lubricant containing 20 mM 3BP) for 3 months was accessed.

[5] = system: vagina and uterus in female mice; experiment: Histology of vagina and uterus after daily intravaginal application; assay type: in vivo; settings: daily intravaginal 200-400 ul lubricant containing 20 mM 3BP, 3 months
Procedure: as §2

human "swim-up" sperm [6] = experiment: Motility of human swim-up sperm exposed to 3BP, CASA; assay type: cell-based; settings: 1 mM 3BP
Procedure: In normal men in their reproductive ages, ˜30-40% of sperm in human ejaculates are immotile or display weak motility. A ‘swim-up” procedure allows motile sperm to be enriched. To see the potential of 3BP in suppressing sperm motility, the swim-up procedure was first performed to allow the collection of motile sperm and then the motile human sperm were exposed to 3BP to determine if their motility could be abolished. The human semen was left at room temperature for 30 minutes for liquidification and then 2˜3 ml pre-warmed HTF medium were added followed by centrifugation at 1,500 rpm for 5 min. The sperm pellets were resuspended in 1 ml pre-warmed HTF medium and then incubated at 37° C. in anincubator for 60 min. Motile sperm will “swim up” and stay in the upper portion of the medium, in which motile sperm are enriched in. The “swim-up” sperm were collected, 3BP added at a concentration of 1 mM, and the sperm were incubated for 1, 5, 10, 20 and 30 min at 37° C., respectively. Sperm motility was then measured using CASA (FIG. 6).

[7] = system: mouse cauda epididymal sperm; experiment: Mouse sperm motility in HTF with compound, measured by CASA; assay type: cell-based; settings: 1 mM 3BP, activated mouse sperm (HTF 30 minutes, 37° C.)

## O=CC[C@@H](O)[C@H](O)[C@H](O)CO [2-deoxyglucose, reference compound]
[1]; HTF with 1 mM compound
  development of sperm motility: appeared to inhibit the development of sperm motility
[2]; PBS with 1 mM compound
  motility development after short exposure and washout: will permanently impair motility development

## O=C(O)c1nn(Cc2ccc(Cl)cc2Cl)c2ccccc12 [lonidamin, reference compound]
[1]; HTF with 0.5 mM Lonidamin
  development of sperm motility: appeared to inhibit the development of sperm motility
[2]; PBS with 0.5 mM lonidamine
  motility development after short exposure and washout: will permanently impair motility development

## CC(=O)C(=O)OCCC(C)C [isoamyl-pyruvate]
[1]; 37° C.
  inhibition of sperm motility in vitro: no effect on sperm motility

## Cc1ncc(C[n+]2csc(CCO)c2C)c(=O)[nH]1 [oxythiamine, reference compound]
[1]; HTF with 1 mM compound
  development of sperm motility: appeared to inhibit the development of sperm motility
[2]; PBS with 1 mM compound
  motility development after short exposure and washout: will permanently impair motility development

## O=C(O)C(=O)CBr [3BP, 3-bromo-2-oxopropanoic acid]
Human semen
  time to completely abolish human sperm motility: ≤ 5 min
[1]; HTF with 1 mM 3BP, 37° C.
  time to complete loss of sperm motility: ≤ 10 min
[1]; HTF with 1 mM compound
  development of sperm motility: almost completely blocked the development of sperm motility
Mouse epididymal sperm; pH 4.8
  EC100 (100% of motile sperm immobilized within 20 seconds of contact): ~17 mM
Mouse epididymal sperm; pH 4.8, read-out: EC50 (50% of motile sperm immobilized within 20 seconds of contact)
  EC50: ~5 mM
Mouse epididymal sperm; pH 7.5
  EC100 (100% of motile sperm immobilized within 20 seconds of contact): ~100 mM
Mouse epididymal sperm; pH 7.5, read-out: EC50 (50% of motile sperm immobilized within 20 seconds of contact)
  EC50: 40 to 50 mM
Sperm ATP production
  sperm ATP production: can effectively block sperm ATP production
Human "swim-up" sperm [3]; Homo sapiens, Sperm, pH 5, human sperm, pH 5.0
  EC50: 14 mM
Human "swim-up" sperm [3]; human sperm, pH 5.0
  EC100 (100% of motile sperm immobilized within 20 seconds of contact): 23 mM and ~24 mM
  EC50: ~13 mM
Human "swim-up" sperm [3]; human sperm, pH 7.5
  EC100 (100% of motile sperm immobilized within 20 seconds of contact): ~200 mM
[4]
  sperm mitochondrial membrane potential: inhibition of sperm mitochondrial membrane potential; also recorded: could inhibit the mitochondrial membrane potential
[5]
  histology of the vagina and uterus: no significant changes in the histology; also recorded: No discernible pathological changes were observed
[2]; 1 mM 3BP, murine non-activated sperm collected from the epididymis into physiological saline
  exposure time to permanent immobilization with complete loss of motility: less than 1 minute
[2]
  motility developed in HTF after exposure and washing: irreversible
[2]; listed as 3-BrPA
  motility developed in HTF after exposure and washing: No motility was developed
[2]; PBS with 1 mM compound
  motility development after short exposure and washout: permanent; also recorded: could not develop motility
Human "swim-up" sperm [6]; 37° C., swim-up sperm in HTF
  time to abolish motility of motile human sperm: 1 to 5 min
Human "swim-up" sperm [6]; activated human sperm (HTF 30 minutes, 37° C.)
  exposure time to permanent immobilization with complete loss of motility: less than 1 minute
[7]
  exposure time to permanent immobilization with complete loss of motility: less than 1 minute

## CCCOC(=O)C(C)=O [propyl-pyruvate]
[1]; 37° C.
  inhibition of sperm motility in vitro: no effect on sperm motility

## CCOC(=O)C(C)=O [ethyl-pyruvate]
[1]; 37° C.
  inhibition of sperm motility in vitro: None of the treatments resulted in inhibition of sperm motility
[1]; 37° C., listed as ethyl pyruvate
  inhibition of sperm motility in vitro: no effect on sperm motility
